Data reported in patent US5324648A, “Substituted isocoumarins as serine protease inhibitors and anti-inflammatory agents” (Georgia Tech Research Corporation, priority 1992, dated 1994).
Where two headings read alike, the source gives them in different places.

Assays:
complement protein D = complement protein D (Homo sapiens, UniProt P00746); test: Inactivation rate of complement protein D; format: biochemical; settings: Table II; pH 7.5, 25° C; [I] 0.05 to 1.29 mM; read-out: kobs/[I]
Procedure: (§1) Inactivation rates of serine proteases by substituted isocoumarins were measured by the incubation method. An aliquot of inhibitor (25 or 50 μl) in Me2 SO was added to a buffered enzyme solution (0.01-2.3 μM) to initiate the inactivation. Aliquots (50 μl) were withdrawn at various intervals and the residual enzymatic activity was measured. Me2 SO concentration in the reaction mixture was 8-12% (v/v). 0.1 Hepes, 0.01M CaCl2, pH 7.5 buffer was utilized for trypsin and coagulation enzymes. 0.1M Hepes, 0.5M NaCl, pH 7.5 was utilized for other serine proteases. The inhibitor concentrations are shown in all the tables. Peptide thioesters or peptide nitroanilides with appropriate sequence were used as substrates for various serine proteases. All peptide thioester hydrolysis rates were measured with assay mixtures containing 4,4'-dithiodipyridine (ε324 =19800M^-1 cm^-1; Grasetti & Murray, Arch. Biochem. Biophys. 119, pp 41-49 (1967)). Peptide 4-nitroanilide nitroanilide hydrolysis was measured at 410 nm (ε410 =8800M^-1 cm^-1; Erlanger et al., Arch. Biochem. Biophys. 95, pp 271-278 (1961)). First order inactivation rate constant (kobs) were obtained from plots of ln (vt /vo) vs time, and the correlation coefficients were greater than 0.98.
(§2) ^a Conditions were 0.1M Hepes, 0.5M NaCl, pH 7.5, 8-10% Me2 SO
(§3) and 25° C. Inactivation rates were measured by incubation method.
(§4) Enzyme concentrations were as follows: protein D, 1-9 μM; C2, 0.7-1
(§5) μM; B, 1.8 μM; Bb, 0.3-0.8 μM; Cl^- s, 0.07 μM; Cl^-

Cl^- s = molecular target: T1, Cl^- s (Homo sapiens, UniProt P09871); test: Inactivation rate of complement protein C1s; format: biochemical; settings: Table II; pH 7.5, 25° C; [I] 0.8 to 44 μM; read-out: kobs/[I]
T1 construct: Cl^- s^e
T1 sequence (P09871 438-688 limits assumed): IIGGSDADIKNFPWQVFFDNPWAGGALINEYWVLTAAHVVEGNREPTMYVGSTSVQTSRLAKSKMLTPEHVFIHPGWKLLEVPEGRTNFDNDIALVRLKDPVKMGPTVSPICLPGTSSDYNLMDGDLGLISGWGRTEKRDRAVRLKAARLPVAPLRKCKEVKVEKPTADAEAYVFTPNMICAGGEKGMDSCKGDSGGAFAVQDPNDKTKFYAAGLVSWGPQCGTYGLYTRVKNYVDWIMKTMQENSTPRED
T1 sequence (P09871 16-437 partner limits assumed): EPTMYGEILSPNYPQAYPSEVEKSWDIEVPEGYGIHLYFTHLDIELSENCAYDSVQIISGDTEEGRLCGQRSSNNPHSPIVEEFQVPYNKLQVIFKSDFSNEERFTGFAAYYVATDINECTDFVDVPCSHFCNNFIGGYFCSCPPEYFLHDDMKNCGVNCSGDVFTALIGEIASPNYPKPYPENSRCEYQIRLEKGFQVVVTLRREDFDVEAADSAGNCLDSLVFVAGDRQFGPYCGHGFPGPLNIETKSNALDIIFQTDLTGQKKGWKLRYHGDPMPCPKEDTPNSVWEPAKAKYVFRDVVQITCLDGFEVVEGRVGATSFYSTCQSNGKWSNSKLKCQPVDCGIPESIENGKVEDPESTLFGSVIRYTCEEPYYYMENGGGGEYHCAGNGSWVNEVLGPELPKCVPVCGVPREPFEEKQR
Procedure: as §1, §2, §3, §4, §5

human lung tryptase = test: Inactivation rate of human lung tryptase; format: biochemical; settings: pH 7.5, 25° C
Summary of the method: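 Incubation method in 0.1M Hepes, 0.5M NaCl, pH 7.5, 8% Me2SO, 25° C; inhibitor added to enzyme, aliquots withdrawn over time for residual activity. Substrate ZArg-SBzl (0.07 mM) with 4,4'-dithiodipyridine (0.33 mM). kobs from ln(vt/vo) vs time plots.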

rat skin tryptase = molecular target: T2, rat skin tryptase (Rattus norvegicus, UniProt P27435); test: Inactivation rate of rat skin tryptase; format: biochemical; settings: pH 7.5, 25° C, read-out: kobs/[I]
T2 construct: from tissue; host or cells: rat skin
T2 sequence (P27435 29-273): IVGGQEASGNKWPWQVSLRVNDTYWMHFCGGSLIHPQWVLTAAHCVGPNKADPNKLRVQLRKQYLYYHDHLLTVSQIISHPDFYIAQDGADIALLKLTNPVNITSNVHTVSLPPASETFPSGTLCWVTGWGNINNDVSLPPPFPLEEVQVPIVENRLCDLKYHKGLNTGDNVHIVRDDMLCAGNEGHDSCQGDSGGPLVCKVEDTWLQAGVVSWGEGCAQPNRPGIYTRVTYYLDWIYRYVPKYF
Summary of the method: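 Rat skin tryptase incubated with isocoumarin inhibitor in 25 mM phosphate, 0.5 M NaCl, 1 mM EDTA, pH 7.5, 8-9% Me2SO, 25 °C; aliquots withdrawn over time for residual activity on ZArg-SBzl (0.07 mM) with 4,4'-dithiodipyridine (0.33 mM). First-order kobs from ln(vt/vo) versus time.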

[1] = molecular target: recombinant human tissue plasminogen activator (Homo sapiens, UniProt P00750); test: Inactivation rate of recombinant human tissue plasminogen activator; format: biochemical; settings: pH 7.5, 25° C, read-out: kobs/[I]
Chain of recombinant human tissue plasminogen activator (P00750 36-562): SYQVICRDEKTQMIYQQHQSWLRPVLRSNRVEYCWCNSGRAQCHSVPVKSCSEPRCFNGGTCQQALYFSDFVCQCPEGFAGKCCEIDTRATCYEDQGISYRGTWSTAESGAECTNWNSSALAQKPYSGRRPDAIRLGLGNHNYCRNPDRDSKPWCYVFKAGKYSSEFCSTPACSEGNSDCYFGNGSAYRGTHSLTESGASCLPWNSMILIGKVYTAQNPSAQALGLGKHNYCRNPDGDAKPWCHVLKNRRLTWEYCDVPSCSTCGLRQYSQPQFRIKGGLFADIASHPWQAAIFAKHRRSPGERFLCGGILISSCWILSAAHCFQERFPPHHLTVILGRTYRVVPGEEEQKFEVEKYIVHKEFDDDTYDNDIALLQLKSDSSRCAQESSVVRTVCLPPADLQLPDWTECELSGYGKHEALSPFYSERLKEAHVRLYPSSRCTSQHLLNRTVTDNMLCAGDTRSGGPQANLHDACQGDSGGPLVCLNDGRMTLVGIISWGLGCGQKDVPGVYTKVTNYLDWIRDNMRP
Summary of the method: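 Incubation method: enzyme mixed with inhibitor in Me2SO (8–12% v/v) in 0.1M Hepes, 0.5M NaCl, pH 7.5; aliquots withdrawn over time for residual activity with ZArg-SBzl (0.07 mM) plus 4,4'-dithiodipyridine (0.33 mM). kobs taken from ln(vt/vo) versus time plots.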

[2] = Activated partial thromboplastin time (APTT), human plasma
cathepsin G = molecular target: T3, cathepsin G (Homo sapiens, UniProt P08311); test: Inactivation of cathepsin G; format: biochemical; settings: for kinact/KI: pH 7.5, 25° C, read-out: kobs/[I]
T3 construct: from tissue; host or cells: human leukocytes
T3 sequence (P08311 21-255): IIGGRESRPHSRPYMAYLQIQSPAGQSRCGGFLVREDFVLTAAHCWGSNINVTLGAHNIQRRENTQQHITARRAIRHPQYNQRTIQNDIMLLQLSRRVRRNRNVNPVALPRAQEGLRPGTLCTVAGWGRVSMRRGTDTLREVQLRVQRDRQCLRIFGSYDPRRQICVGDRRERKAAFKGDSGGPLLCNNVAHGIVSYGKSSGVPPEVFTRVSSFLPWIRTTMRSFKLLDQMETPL
Procedure: Inactivation rates of serine proteases by substituted isocoumarins were measured by the incubation method. An aliquot of inhibitor (25 or 50 μl) in Me2 SO was added to a buffered enzyme solution (0.01-2.3 μM) to initiate the inactivation. Aliquots (50 μl) were withdrawn at various intervals and the residual enzymatic activity was measured. Me2 SO concentration in the reaction mixture was 8-12% (v/v). 0.1 Hepes, 0.01M CaCl2, pH 7.5 buffer was utilized for trypsin and coagulation enzymes. 0.1M Hepes, 0.5M NaCl, pH 7.5 was utilized for other serine proteases. […] Peptide thioesters or peptide nitroanilides with appropriate sequence were used as substrates for various serine proteases. All peptide thioester hydrolysis rates were measured with assay mixtures containing 4,4'-dithiodipyridine (ε324 =19800M^-1 cm^-1 ; Grasetti & Murray, Arch. Biochem. Biophys. 119, pp 41-49 (1967)). Peptide 4-nitroanilide nitroanilide hydrolysis was measured at 410 nm (ε410 =8800M^-1 cm^-1 ; Erlanger et al., Arch. Biochem. Biophys. 95, pp 271-278 (1961)). First order inactivation rate constant (kobs) were obtained from plots of ln (vt /vo) vs time, and the correlation coefficients were greater than 0.98.
^a Inactivation rates were measured at 0.1M Hepes, 0.5 NaCl, pH 7.5,
8-12% Me2 SO and 25° C. by incubation method.
and assayed for remaining activity.
^a Inhibition rates were measured in 0.1M Hepes, 0.05M NaCl, pH 7.5
buffer, 8-9% Me2 SO and at 25° C.
Me2 SO, pH 7,5 and at 25° C.
^a Inhibition was measured in 0.1M Hepes, 0.5M NaCl, pH 7.5 buffer,
5-10% Me2 SO and at 25° C. Suc--Val--Pro--Phe--NA (0.48 mM)
was used as the substrate for chymotrypsin and cat G.

[3] = Spontaneous hydrolysis in Hepes buffer; format: physicochemical; settings: 0.1 Hepes, 0.5M NaCl, pH 7.5, 9% Me2SO, 25° C; for half-life: hepes buffer, read-out: t1/2 for spontaneous hydrolysis
Procedure: ^a Conditions were 0.1 Hepes, 0.5M NaCl, pH 7.5 and 9% Me2 SO at
25° C. Spontaneous hydrolysis rates were measured
spectrophotometrically by monitoring the decrease in absorbance due to th
isocoumarin ring system (wavelength 335-380 nm) using the firstorder rate

[4] = pH 7.5, Table III, 25 mM phosphate, [I] 0.4 to 50 μM
[5] = pH 7.5, Table VI, [I] 7 to 44 μM
[6] = pH 7.5, Table IX, [I] 0.42-0.51 μM
[7] = pH 7.5, Table IX, [I] 3.5-5.0 μM

Chain of complement protein D (P00746 26-253): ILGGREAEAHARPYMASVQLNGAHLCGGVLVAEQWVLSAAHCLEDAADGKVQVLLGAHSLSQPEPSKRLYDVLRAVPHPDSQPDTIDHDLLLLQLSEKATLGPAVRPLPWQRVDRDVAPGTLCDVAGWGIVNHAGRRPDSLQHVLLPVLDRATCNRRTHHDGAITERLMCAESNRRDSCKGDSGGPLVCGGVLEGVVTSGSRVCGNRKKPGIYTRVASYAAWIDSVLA

Row | Compound | kinact/KI (complement protein D) | kinact/KI (Cl^- s) | kobs/[I] (human lung tryptase; Table III, [I] 0.4 to 50 μM) | kinact/KI (rat skin tryptase; [4]) | kinact/KI [1, 5] | kinact/KI (cathepsin G; Table IV, [I] 0.002 to 0.35 mM) | half-life [3] | also measured
1 | O=c1oc(Cl)c(Cl)c2ccccc12 [3,4-dichloroisocoumarin, reference compound] | 192 M⁻¹ s⁻¹ | 170 M⁻¹ s⁻¹ | 185 M⁻¹ s⁻¹ | 610 M⁻¹ s⁻¹ | 73 M⁻¹ s⁻¹ | – | – | APTT ([2]; [I] 33 μM): 26.6 s; APTT ([2]; [I] 45 μM): 26.0 s
2 | N=C(N)SCCOc1oc(=O)c2ccccc2c1Cl [3-(2-isothiureidoethoxy)-4-chloroisocoumarin] | 61 M⁻¹ s⁻¹ | – | – | – | – | 110 M⁻¹ s⁻¹ | 83 min | –
3 | NCCCOc1oc(=O)c2ccccc2c1Cl [3-(3-aminopropoxy)-4-chloroisocoumarin] | – | – | 2,000 M^-1 s^-1 | 8370 M⁻¹ s⁻¹ | 94 M⁻¹ s⁻¹ | 260 M⁻¹ s⁻¹ | 123 min | –
4 | N=C(N)SCCCOc1oc(=O)c2ccccc2c1Cl [3-(3-isothiureidopropoxy)-4-chloroisocoumarin] | 145 M⁻¹ s⁻¹ | 130000 M⁻¹ s⁻¹ | 64,000 M^-1 s^-1 | 53000 M⁻¹ s⁻¹ | 4690 M⁻¹ s⁻¹ | 83 M⁻¹ s⁻¹ | 99 min | APTT ([2]; [I] 31 μM): 25.8 s
5 | N=C(N)SCCCOc1oc(=O)c2cc(N)ccc2c1Cl [7-amino-4-chloro-3-(3-isothiureidopropoxy)isocoumarin] | 55 M⁻¹ s⁻¹ | 23000 M⁻¹ s⁻¹ | 28,000 M^-1 s^-1 | 63000 M⁻¹ s⁻¹ | 5690 M⁻¹ s⁻¹ | 36 M⁻¹ s⁻¹ | – | kobs/[I] (human lung tryptase; Table IX, [I] 0.42-0.47 μM): 19,000 M^-1 s^-1; kinact/KI (rat skin tryptase; [6]): 39000 M⁻¹ s⁻¹; kinact/KI [1, 7]: 13000 M⁻¹ s⁻¹; t1/2 for spontaneous hydrolysis [3]: 90 min; APTT ([2]; [I] 2.9 μM): 100.8 s; APTT ([2]; [I] 29 μM): > 120 s
6 | CCOc1oc(=O)c2cc(NC(=N)N)ccc2c1Cl [7-guanidino-3-ethoxy-4-chloroisocoumarin, 7-guanidino-4-chloro-3-ethoxyisocoumarin] | 193 M⁻¹ s⁻¹ | 690 M⁻¹ s⁻¹ | 61,000 M^-1 s^-1 | 82000 M⁻¹ s⁻¹ | 7720 M⁻¹ s⁻¹ | 84000 M⁻¹ s⁻¹ | 39 min | APTT ([2]; [I] 4.3 μM): 74.8 s; APTT ([2]; [I] 21 μM): > 120 s; APTT ([2]; [I] 53 μM): > 120 s; APTT ([2]; [I] 107 μM): > 120 s
7 | COc1cc2ccc(NC(=N)N)cc2c(=O)o1 [7-guanidino-3-methoxyisocoumarin] | – | – | – | – | – | – | 252 min | inhibition at 490 µM (cathepsin G; Table IV, not time dependent, at 0.49 mM): 81%
8 | N=C(N)Nc1ccc2c(Cl)c(OCCc3ccccc3)oc(=O)c2c1 [7-guanidino-4-chloro-3-(2-phenylethoxy)isocoumarin] | 92 M⁻¹ s⁻¹ | 90 M⁻¹ s⁻¹ | 56,000 M^-1 s^-1 | 86000 M⁻¹ s⁻¹ | 6780 M⁻¹ s⁻¹ | 66000 M⁻¹ s⁻¹ | 36 min | APTT ([2]; [I] 27 μM): 57.3 s
9 | COc1oc(=O)c2cc(NC(=N)N)ccc2c1Cl [7-guanidino-4-chloro-3-methoxyisocoumarin] | 252 M⁻¹ s⁻¹ | 660 M⁻¹ s⁻¹ | 20,000 M^-1 s^-1 | 52000 M⁻¹ s⁻¹ | 4420 M⁻¹ s⁻¹ | 11000 M⁻¹ s⁻¹ | 44 min | APTT ([2]; [I] 21 μM): 83.8 s
10 | N=C(N)SCCOc1oc(=O)c2cc(NC(=O)Nc3ccccc3)ccc2c1Cl [PhNHCONH-CiTEtOIC, 7-(phenylcarbamoylamino)-4-chloro-3-(2-isothiureidoethoxy)isocoumarin] | – | – | – | – | – | – | – | kobs/[I] (human lung tryptase; Table IX, [I] 0.42-0.47 μM): 170,000 M^-1 s^-1; kinact/KI (rat skin tryptase; [6]): 170000 M⁻¹ s⁻¹; kinact/KI (cathepsin G; Table X, [I] 33-46 μM): 100 M⁻¹ s⁻¹; kinact/KI [1, 7]: 16000 M⁻¹ s⁻¹; t1/2 for spontaneous hydrolysis [3]: 108 min
